Records with an inconclusive call do not appear. Calls of active or inactive are those of the source. The rule behind the calls is not given here.
Key:
[1] = dynein cargo transport inhibitors, potency, dose response, imaging, high-content imaging (AID 463136); details: HCS imaging, dynein-mediated cargo transport inhibition; inhibition at max concentration; at 50 µM; stronger effect = higher value;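 note: mouse mammary adenocarcinoma 3617.4 cells expressing GFP-tagged rat glucocorticoid receptor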; for inhibition: reference of the scale not given here
[2] = system: HCS imaging, dynein-mediated cargo transport inhibition; test: as above

Structure (SMILES) | inhibition [1] [%] | IC50 [2]
CN(Cc1ccc(Cl)s1)C(=O)CCl | 75.8 | 8.74 µM
CC(=O)Nc1c([N+](=O)[O-])cc(C)c(Cl)c1[N+](=O)[O-] | 88.8 | 11.2 µM
Clc1ccc(-c2csc3ncnc(Cl)c23)cc1 | 72.9 | 40.5 µM
COC(=O)c1cc(=O)n(Cc2ccco2)c(=Nc2ccc(F)c(Cl)c2)s1 | 31.4 | > 50 µM (inactive)
CC1(C)CC(=O)C2=C(C1)OC1=C(C(=O)CC(C)(C)C1)C2c1ccc(O)cc1O | 65.8 | 22.6 µM
O=C(CCl)c1ccc2c(c1)CCN2C(=O)C1CCCCC1 | 78.2 | 27 µM
N#CC1=C(N)OC2=C(CC/C2=C\c2ccccc2)C1c1ccccc1 (stereo unspecified) | 75.8 | 11.1 µM
CC(C)Cn1c([N+](=O)[O-])nc2c1c(=O)[nH]c(=O)n2C | 83.8 | 5.26 µM
Cc1cc(C)cc(N=Cc2[nH]c3ccc(Br)c(Cl)c3c2O)c1 | 122 | 27.6 µM
CC(=O)n1cc(N(C(=O)CCl)c2ccc([N+](=O)[O-])cc2)c2ccccc21 | 25.2 | > 50 µM (inactive)
COc1ccc(CCn2c(C)cc(C(=O)CCl)c2C)cc1OC | 82.1 | 9.84 µM
O=C1NC(=O)N(Cc2ccc(F)cc2)C(=O)/C1=C\C=C\c1ccco1 | 74.8 | 30.9 µM
C=CCSc1nc2ccccc2n1C(=O)/C=C/c1cc(OC)c(OC)c(OC)c1 | 25.5 | > 50 µM (inactive)
C=C1C(=O)[C@@]23[C@H](O)C[C@@H]4C(C)(C)CC[C@H](O)[C@]4(C)[C@@H]2C[C@H](O)[C@@H]1[C@H]3O | 54.9 | 9.84 µM
Cc1ccc(-n2nnnc2CCl)cc1 | 80 | 12.2 µM
Cc1ccc(SC(=O)c2c([N+](=O)[O-])c(C)nn2C)cc1 | 6.09 | > 50 µM (inactive)
CCCNC(=O)Cn1c(=O)/c(=C\c2ccc(-c3ccc([N+](=O)[O-])cc3)o2)s/c1=C\C(=O)C(C)(C)C | 95.2 | 32.2 µM
Cc1ccc(NC(=O)CN(C)C(=O)Cn2ncc(Cl)c(Cl)c2=O)cc1 | 59 | 7.77 µM
CCOc1ccc(CN(C)C(=O)CCl)cc1 | 85.8 | 10.2 µM
CCn1c(SCC(=O)N2CCOCC2)nc2oc3c(Cl)cc(Cl)cc3c(=O)c2c1=O | 78.9 | 33 µM
Cc1ccc(-n2nnnc2Sc2ccc(S(=O)(=O)NCCN(C)C)cc2[N+](=O)[O-])cc1 | 86.3 | 11.9 µM

Structure (SMILES) | inhibition [1] [%] | IC50 [2]
CCCCNc1ccc2c3c(cccc13)C(=O)N(CCCC)C2=O | 13.5 | > 50 µM (inactive)
O=C(CCl)Nc1cccc(Oc2ccccc2)c1 | 56.5 | 38.8 µM
CC(=O)Oc1ccc(OC(C)=O)c(SCCCCCCl)c1 | 83.5 | 17.6 µM
CC(C)(C)C(=O)/C=c1\s/c(=C\c2ccc(-c3ccc([N+](=O)[O-])cc3)o2)c(=O)n1CC(=O)NC(N)=O | 98.8 | 0.825 µM
COc1ccc(-c2csc3nc(-c4cccnc4)nc(Cl)c23)cc1OC | 84.4 | 27.5 µM
Cc1nc([N+](=O)[O-])c(Br)n1CC(=O)c1ccc(Cl)cc1 | 88.1 | 13.1 µM
CCOc1ccc2noc3c2c1C(=O)c1ccccc1-3 | 99.2 | 11 µM
CC(C)CN1C(=O)/C(=C/c2c(N3CCc4ccccc4C3)nc3ccccn3c2=O)SC1=S | 131 | 26 µM
Cn1cc(Br)c(NC(=O)/C=C/C(=O)O)n1 | 6.1 | > 50 µM (inactive)
N#CC(C#N)=C1C=C2C=C(N3CCCCC3)CCC2CC1 (stereo unspecified) | 99.5 | 35.8 µM
O=C(/C=C/c1ccccc1)/C=C/c1ccccc1 | 45.9 | > 50 µM (inactive)
Cc1nc([N+](=O)[O-])c(Br)n1Cc1ccccc1 | 84.8 | 6.35 µM
CC(C)(C)C(=O)/C(=C/c1ccncc1)n1cncn1 | 82.3 | 8.77 µM
Cc1ccccc1NC(=O)COC(=O)c1ccc(S(C)(=O)=O)c([N+](=O)[O-])c1 | 81.2 | 31.8 µM
COc1ccccc1NS(=O)(=O)c1cc([N+](=O)[O-])ccc1N/N=C/c1c(C)[nH]c2ccccc12 | 16.5 | > 50 µM (inactive)
COc1cc(/C=C/C(=O)c2ccc(F)cc2)cc(OC)c1OC | 69.5 | 36.7 µM
CCN1/C(=C/c2ccc3ccc(C)cc3[n+]2CC)Sc2ccccc21 | 98.5 | 2.13 µM
O=[N+]([O-])c1c(NCCCO)cc(Sc2ccc(Cl)cc2)c2nonc12 | 30.9 | > 50 µM (inactive)
CN1CCN(C2=C(Cl)C(=O)C(c3cnc(N4CCCCC4)s3)=C(Cl)C2=O)CC1 | 94.7 | 33.3 µM
O=C(NCc1cccnc1)/C(=C/c1ccc(-c2cccc(Cl)c2)o1)S(=O)(=O)c1ccccc1 | 42 | > 50 µM (inactive)
Cc1ccnc(N/C=C(\C#N)c2nc(-c3cccc(Br)c3)cs2)c1 | 102 | 8.77 µM

Structure (SMILES) | inhibition [1] [%] | IC50 [2]
Cc1cccc(Cn2ncc(Cl)c(Cl)c2=O)c1 | 84.7 | 13 µM
O=c1cc(-c2c(F)c(F)c(F)c(F)c2F)oc2c(F)c(F)c(F)c(F)c12 | 92 | 27.7 µM
Cc1nc([N+](=O)[O-])c(Br)n1CC(=O)c1ccc(Br)cc1 | 82 | 14.7 µM
Nc1c(C(=O)c2ccc(Cl)cc2)sc2nsc(SCCN3CCOCC3)c12 | 7.23 | > 50 µM (inactive)
Cc1cc(Cl)n2c(nc3cc(F)c(F)cc32)c1C#N | 36.6 | 25.5 µM
O=C(c1ccccc1)c1cc(Cl)ccc1N1C(=O)C=CC1=O | 12 | > 50 µM (inactive)
COc1ccc(CN(CCC(c2ccccc2)c2ccc(OC(C)C)cc2)C(=O)CCl)cc1OC (stereo unspecified) | 34.9 | > 50 µM (inactive)
Cc1ccc2nc(Cl)c3nnnn3c2c1 | 64 | 9.43 µM
CN(C)c1ccc(/C=C/C(=O)c2cccc(Br)c2)cc1 | 18.7 | > 50 µM (inactive)
Cn1cc(C(=O)CCl)c2ccccc21 | 75 | 22.5 µM
CCN(CC)c1ccc2cc(-c3nc(-c4ccc(OC)cc4)cs3)c(=O)oc2c1 | 98.4 | 25.7 µM
CCc1ccc(N2C(=O)NC(=O)/C(=C\C=C\c3ccco3)C2=O)cc1 | 165 | 27.5 µM
C=CS(=O)(=O)c1sc(Cl)c(N2CCOCC2)c1[N+](=O)[O-] | 10.2 | > 50 µM (inactive)
COC(=O)[C@@]1(Cc2ccccc2)[C@@H]2C(=CC(=O)[C@H]2CC(=O)C(=O)N(C)C)CN1C(=O)c1ccccc1 | 86.2 | 4.67 µM
CCCn1nc(-c2ccccc2)c2nc3ccccc3nc21 | -0.033 | > 50 µM (inactive)
O=C(/C=C/Sc1ccccc1)c1ccccc1 | 76.9 | 30.3 µM
COc1ccc(C(CCN(Cc2ccc(OC)c(OC)c2)C(=O)CCl)c2ccccc2)cc1 (stereo unspecified) | 70.4 | 37 µM
Cc1[nH]c2ccccc2c1/C=N/Nc1ccc([N+](=O)[O-])cc1 | 132 | 24.8 µM
Clc1ncnc2scc(-c3ccc(Br)cc3)c12 | 85.1 | 19.9 µM
Cc1ccc(NC(=O)c2cc(N3C(=O)C=CC3=O)ccc2N2CCOCC2)cc1 | -6.6 | > 50 µM (inactive)
COc1cc(N2C(=O)C=CC2=O)c(OC)cc1Cl | 12.9 | > 50 µM (inactive)

Structure (SMILES) | inhibition [1] [%] | IC50 [2]
CC(=O)OCCCNc1cc(Sc2ccc(Cl)cc2)c2nonc2c1[N+](=O)[O-] | 60.4 | 41 µM
COc1ccc(OC)c(N2C(=O)NC(=O)/C(=C\c3ccc([N+](=O)[O-])s3)C2=O)c1 | 86.7 | 11.9 µM
COc1cccc(N2C(=O)NC(=O)/C(=C\c3ccc([N+](=O)[O-])s3)C2=O)c1 | 85.4 | 13.5 µM
Cc1ccc(C2=NN(C(=O)CCl)C(c3cccs3)C2)o1 (stereo unspecified) | 80.3 | 8.74 µM
Cc1ccc(C2=NOC(=O)/C2=C\C=C\c2ccccc2)cc1 | 71 | 36.6 µM
COCc1cc(S(=O)c2ccc(Cl)cc2)nc(C)n1 (stereo unspecified) | 86.5 | 15.6 µM
CC(C)(C)C1C/C(=C/c2ccco2)C(=O)/C(=C/c2ccco2)C1 (stereo unspecified) | 101 | 24.9 µM
O=C(NC1CCCC1)C(c1ccc(Cl)cc1)N(Cc1ccc(F)cc1)C(=O)CCl (stereo unspecified) | 75.1 | 34.8 µM
Cc1ccc(C(=O)Oc2oc(-c3ccco3)nc2C=Nc2ccc(Cl)cc2)cc1 | 65.2 | 46.3 µM
Cc1nnc(NC(=O)c2sc3nc(-c4cccs4)cc(C(F)(F)F)c3c2N)s1 | 154 | 2.21 µM
CCNc1ccc(Br)cc(C(=O)/C=C/c2ccc(Cl)cc2Cl)c1=O | 99.2 | 32.9 µM
CCOC(=O)c1c(NC(=S)N2CCOCC2)sc2c1CCN(C(=O)OCC)C2 | 74 | 33.2 µM
CCC(=O)Nc1cccc(C(=O)/C=C/c2ccc(F)cc2)c1 | 74.9 | 34.1 µM
CC(=O)OCCNc1cc(SCc2ccco2)c2nonc2c1[N+](=O)[O-] | 59.9 | 42.1 µM
CC(=O)N1/C(=C/c2ccc(N(C)C)cc2)C(=O)c2ccccc21 | 78.9 | 29.9 µM
O=C(NCc1cccnc1)/C(=C/c1ccc(-c2ccc(Cl)cc2)o1)S(=O)(=O)c1ccccc1 | 59.1 | 34.3 µM
CCSc1nnc(-c2sc3nnc(-c4ccccc4)c(-c4ccccc4)c3c2N)o1 | 134 | 31.3 µM
Cc1cc(-n2c(C)cc(C(=O)CCl)c2C)no1 | 67.7 | 9.45 µM
CC1(C)C(=O)Nc2ccccc2N1C(=O)Cn1ncc(Cl)c(Cl)c1=O | 71.9 | 12.3 µM
CC(C)n1c(O)c(C2c3cc(Cl)ccc3Oc3[nH]c(=O)n(C(C)C)c(=O)c32)c(=O)[nH]c1=O (stereo unspecified) | 64.2 | 13.6 µM
